According to patent US12448382B2, “Heterocyclic compounds for mediating tyrosine kinase 2 activity” (GUANGZHOU INNOCARE PHARMA TECH CO., LTD., priority 2019, dated 2025):
Where two headings read alike, the source gives them in different places.

Tests used:
[1] = molecular target: T1, human recombinant TYK2 protein (Homo sapiens, UniProt P29597); assay: TYK2 Inhibition Assay (HTRF kinase assay); assay type: biochemical; settings: human recombinant TYK2, 11.25 μM ATP substrate solution
T1 construct: purchased Carna Biosciences 08-147
T1 sequence (P29597 871-1187 limits assumed): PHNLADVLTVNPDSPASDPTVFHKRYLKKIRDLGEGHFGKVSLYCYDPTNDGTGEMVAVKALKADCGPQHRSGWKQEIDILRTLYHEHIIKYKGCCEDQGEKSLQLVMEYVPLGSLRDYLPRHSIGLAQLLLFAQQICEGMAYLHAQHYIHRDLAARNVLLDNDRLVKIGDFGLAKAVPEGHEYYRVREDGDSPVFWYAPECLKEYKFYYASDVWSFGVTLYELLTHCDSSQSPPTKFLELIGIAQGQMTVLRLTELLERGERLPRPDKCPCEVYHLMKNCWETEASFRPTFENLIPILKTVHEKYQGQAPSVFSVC
Method: The effect of the compounds of the present invention on the enzymatic activity of TYK2 was assessed by detecting the substrate phosphorylation level in a kinase reaction using the HTRF kinase assay detection kit (Cisbio, Cat. No. 62TK0PEC).
(§1) The experimental method is generally described below:
A reaction buffer contained the following components: an enzyme reaction buffer (1×), 5 mM MgCl2 mM DTT and 0.01% Brij35 from the kit. A TYK2 kinase solution contained human recombinant TYK2 protein (Carna Biosciences, 08-147) diluted in the reaction buffer to 0.25 ng/μL. A substrate reaction solution contained 11.25 μM ATP and 0.5 μM of a biotinylated tyrosine kinase substrate from the kit in the reaction buffer. A detection solution contained 0.1 ng/μL Eu^3+-labeled cage antibody (Cisbio, 61T66KLB) and 25 nM streptavidin-1 added XL665 (Cisbio, 610SAXLB) in the reaction buffer.
(§2) The test compound was dissolved in DMSO to 10 μM, followed by a serial 4-fold dilution with DMSO to a minimum concentration of 0.061 nM. Each concentration was further diluted 40-fold with the reaction buffer.
(§3) To a 384-well assay plate (Corning, 3674) were added 4 μL of compound solution and 2 μL of TYK2 kinase solution. The mixture was mixed and incubated at room temperature for 15 minutes, and then added with 4 μL of the substrate reaction solution. After further incubation at room temperature for 40 minutes, the reaction mixture was added with an equal volume of 10 μL detection solution and allowed to stand at room temperature for 30 minutes. An Envision plate reader (Perkin Elmer) was then used to measure the progress of the reaction at 620 nm and 665 nm. The ratio of absorbances at 665 nm and 620 nm was positively correlated with the degree of substrate phosphorylation, therefore the activity of TYK2 kinase was detected. In the experiment, the group without TYK2 kinase protein was treated as the 100% inhibition group, and the group with TYK2 kinase protein but not the test compound was treated as the 0% inhibition group. The percentage of inhibition on TYK2 kinase activity by the test, compound was calculated using the following formula: Percentage of inhibition=100−100*(ratiocompound−ratio100% inhibition)/(ratio0% inhibition−ratio100% inhibition)
The IC50 value of the test compound was calculated from 8 concentration points using the XLfit software (ID Business Solutions Ltd., UK) by the following formula: Y=Bottom+(Top−Bottom)/(1+10^((log IC50−X)slope factor))
(§4) Where Y was the percentage of inhibition, X was the logarithm of the concentration of the test compound, Bottom was the bottom plateau value of the S-shaped curve, Top was the top plateau value of the S-shaped curve, and slope factor was the slope coefficient of the curve.

[2] = molecular target: T2, human recombinant JAK2 protein (Homo sapiens, UniProt O60674); assay: JAK2 Inhibition Assay (HTRF kinase assay); assay type: biochemical; settings: human recombinant JAK2, 2.5 μM ATP substrate solution
T2 construct: purchased Carna Biosciences 08-045
T2 sequence (O60674 826-1132 limits assumed): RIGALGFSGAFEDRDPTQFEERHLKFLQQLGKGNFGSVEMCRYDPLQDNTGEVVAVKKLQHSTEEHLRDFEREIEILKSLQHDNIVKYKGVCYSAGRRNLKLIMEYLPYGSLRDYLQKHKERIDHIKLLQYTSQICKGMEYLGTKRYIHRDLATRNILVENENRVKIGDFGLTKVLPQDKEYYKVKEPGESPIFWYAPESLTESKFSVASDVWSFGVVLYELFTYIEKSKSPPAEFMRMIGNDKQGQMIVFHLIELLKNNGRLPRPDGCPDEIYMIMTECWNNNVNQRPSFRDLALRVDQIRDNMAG
Method: The effect of the compounds of the present invention on the enzymatic activity of JAK2 was assessed by detecting the substrate phosphorylation level in a kinase reaction using the HTRF kinase assay detection kit (Cisbio, Cat. No. 62TK0PEC).
as §1
A reaction buffer contained the following components: an enzyme reaction buffer (1×), 5 mM MgCl2, 1 mM DTT and 0.01% Brij35 from the kit. A JAK2 kinase solution contained a human recombinant JAK2 protein (Carna Biosciences, 08-045) diluted in the reaction buffer to 0.15 ng/μL. A substrate reaction solution contained 2.5 μM ATP and 0.25 μM of a biotinylated tyrosine kinase substrate from the kit in the reaction buffer. A detection solution contained 0.1 ng/μL Eu^3+-labeled cage antibody (Cisbio, 61T66KLB) and 12.5 nM streptavidin-labeled XL665 (Cisbio, 610SAXLB) in the reaction buffer.
as §2
as §3, with “JAK2” for “TYK2”, “30” for “40”, “test” for “test,”
The IC50 value of the test compound was calculated from 8 concentration points using the XLfit softwere (ID Business Solutions Ltd., UK) by the following formula: Y=Bottom+(Top−Bottom)/(1+10^((log IC50−X)×slope factor))
Where Y was the percentage of inhibition, X was the logarithm of the concentration of the test compound. Bottom was the bottom plateau value of the S-shaped curve, Top was the top plateau value of the S-shaped curve, and slope factor was the slope coefficient of the curve.

[3] = tested on: IL-12-induced IFN-γ secretion in NK92 cells; assay: Inhibition of IL-12-induced IFN-γ Secretion in NK92 Cells (ELISA); assay type: cell-based, human; settings: 24 hours incubation, 8 concentration points, read-out: IC50 (NK92_IL12/IFNγ)
Method: Inhibition of IL-12-induced IFN-γ Secretion in NK92 Cells
The effect of the compounds of the present invention on IFN-γ secretion induced by IL-12 in NK92 cells was evaluated by an enzyme-linked immunosorbent assay (ELISA).
IL-12 receptor is mainly expressed in activated T-cells, NK cells (NK92 is a NK cell line), DC cells, and B-cells. When binding to IL-12, it activates JAK2/TYK2 signal transduction pathway within NK cells and T lymphocytes, thereby inducing secretion of IFN-γ.
as §1
The test compound was dissolved in DMSO to 2.5 mM, followed by a serial 4-fold dilution with DMSO to a minimum concentration of […]. Each concentration was further diluted 50-fold with an FBS-free MEMα medium (Gibco, 12561-056).
NK92 cells (Nanjing Cobioer, CBP60980) were cultured in a complete MEMα medium containing 12.5% FBS (Ausbian, VS500T), 12.5% horse serum (Gibco, 16050-122), 0.02 mM folic acid (Sigma, F8758), 0.2 mM inositol (Sigma, 17850), 0.55 mM β-mercaptoethanol (Gibco, 21985-023), 200 U/mL IL-2 (R&D Systems, 202-1L), and 100 U/mL penicillin (Thermofisher, 15140122). When covering 80-90% of the culture container surface, the cells were dispersed and plated on a 96-well plate (Thermofisher, 167425) with 100,000 cells per well (80 μL of the complete MEMα medium without IL-2). The 96-well plate was then incubated overnight in a 37° C./5% CO2 incubator.
After overnight incubation, 10 μL of the test compound and 10 μL of 50 ng/mL IL-12 (R & D Systems, 219-1L) were added to each well and mix gently, and the 96-well plate was incubated in the 37° C./5% CO2 incubator for additional 24 hours. The plate as centrifuged at 800 rpm for 10 minutes at room temperature and 50 μL of the supernatant from each well was transferred to another 96-well plate (Sigma, CLS3695) coated with anti-IFN-γ antibody. The amount of IFN-γ secretion was detected following the instruction from the Human IFN-γ DuoSet ELISA kit (R & D Systems, DY285B). In the experiment, the group with IL-12 and the test compound being replaced with the MEMα medium was the non-stimulated control group (100% inhibition), and the group with IL-12 and 0.2% DMSO was the stimulated group (0% inhibition). The percentage of inhibition on IL-12 induced IFN-γ secretion in NK-92 cells by the test compound was calculated using the following formula: Percentage of inhibition=100−100*(signalcompound−signalnon-stimulated control)/(signalstimulated control−signalnon-stimulated control)
The IC50 value of the test compound was calculated front 8 concentration points using the XLfit software (ID Business Solutions Ltd., UK) by the following formula: Y=Bottom+(Top−Bottom)/(1+10^((log IC50−X)×slope factor))
as §4

| Compound | IC50 [1] [nM] | IC50 [2] [nM] | IC50 [3] [nM] | IC50 ([3]; Homo sapiens) [nM] |
| --- | --- | --- | --- | --- |
| 3-((3aR,6aS)-3a,6a-dimethyl-5-5-methyl-2-((1-methyl-1H-pyrazol-4-yl)amino)pyrimidin-4-yl)hexahydropyrrolo[3,4-c]pyrrol-2(1H)-yl)-3-oxopropanenitrile [Compound 57] | 2.3 | 3.2 | 5240 | – |
| 4-(3aR,6aS)-5-(isoxazol-5-ylmethyl)-3a,6a-dimetylhexahydropyrrolo[3,4-c]pyrrol-2(1H)-yl)-5-methyl-N-(1-methyl-1H-pyrazol-4-yl)pyrimidin-2-amine [Compound 67] | 6 | 2.2 | 291 | – |
| Cn1cc(Nc2ncc(Cl)c(N3C[C@@H]4CN(S(C)(=O)=O)C[C@]4(C)C3)n2)cn1 (racemic) [Compound 61, cis-5-chloro-N-(1-methyl-1H-pyrazol-4-yl)-4-(3a-methyl-5-(methylsulfonyl)hexahydropyrrolo[3,4-c]pyrrol-2(1H)-yl)pyrimidin-2-amine] | 1.6 | 8.9 | – | 578 |
| Cn1cc(Nc2ncc(Cl)c(N3C[C@H]4CN(C(=O)C5CC5)C[C@@]4(C)C3)n2)cn1 (racemic) [Compound 62, cis-(5-(5-chloro-2-((1-methyl-1H-pyrazol-4-yl)amino)pyrimidin-4-yl)-3a-methylhexahydropyrrolo[3,4-c]pyrrol-2(1H)-yl)(cyclopropyl)methanone] | 0.6 | 2.6 | – | 269 |
| Cn1cc(Nc2ncc(Cl)c(N3C[C@@H]4CN(C(=O)CC#N)C[C@]4(C)C3)n2)cn1 (racemic) [Compound 63, cis-3-(5-(5-chloro-2-((1-methyl-IH-pyrazol-4-yl)amino)pyrimidin-4-yl)-3a-methylhexahydropyrrolo[3,4-c]pyrrol-2(1H)-yl)-3-oxopropanenitrile] | 0.3 | 1.2 | – | 267 |
| Cn1cc(Nc2ncc(Cl)c(N3C[C@@H]4CN(C(=O)c5ccno5)C[C@]4(C)C3)n2)cn1 (racemic) [Compound 64, cis-(5-(5-chloro-2-((1-methyl-1H-pyrazol-4-yl)amino)pyrimidin-4-yl)-3a-methylhexahydropyrrolo[3,4-c]pyrrol-2(1H)-yl)(isoxazol-5-yl)methanone] | 0.5 | 3.3 | – | 162 |
| Cn1cc(Nc2ncc(Cl)c(N3C[C@@H]4CN(C(=O)C5CC5(F)F)C[C@]4(C)C3)n2)cn1 (mixture of isomers) [Compound 65, cis-(5-(5-chloro-2-((1-methyl-1H-pyrazol-4-yl)amino)pyrimidin-4-yl)-3a-methylhexahydropyrrolo[3,4-c]pyrrol-2(1H)-yl)((S)-2,2-difluorocyclopropyl)methanone] | 0.5 | 1.3 | – | 136 |
| Cn1cc(Nc2ncc(Cl)c(N3C[C@@H]4CN(C(=O)CC(F)(F)F)C[C@]4(C)C3)n2)cn1 (racemic) [Compound 68, cis-1-(5-(5-chloro-2((1-methyl-1H-pyrazol-4-yl)amino)pyrimidin-4-yl)-3a-methylhexahydropyrrolo[3,4-c]pyrrol-2(1H)-yl)-3,3,3-trifluoropropan-1-one] | 1.4 | 31 | – | 330 |
| Cc1cnc(Nc2cnn(C)c2)nc1N1C[C@@H]2CN(C(=O)C3CC3)C[C@]2(C)C1 (racemic) [Compound 70, cis-cyclopropyl(3a-methyl-5-(5-methyl-2-((1-methyl-1H-pyrazol-4-yl)amino)pyrimidin-4-yl)hexahydropyrrolo[3,4-c]pyrrol-2(1H)-yl)methanone] | 5.3 | 17 | – | 1200 |
| Cc1cnc(Nc2cnn(C)c2)nc1N1C[C@@H]2CN(C(=O)CC#N)C[C@]2(C)C1 (racemic) [Compound 71, cis-3-(3a-methyl-5-(5-methyl-2-((1-methyl-1H-pyrazol-4-yl)amino)pyrimidin-4-yl)hexahydropyrrolo[3,4-c]pyrrol-2(1H)-yl)-3-oxopropanenitrile] | 1.2 | 3.3 | – | 3540 |
